This note sets out measurements from patent US10604535B2, “Compounds, compositions and methods” (Denali Therapeutics Inc., priority 2016, dated 2020).

SMILES strings stand for the structures.

GST-hRIPK1 (8-327), sequence (Q13546 8-327): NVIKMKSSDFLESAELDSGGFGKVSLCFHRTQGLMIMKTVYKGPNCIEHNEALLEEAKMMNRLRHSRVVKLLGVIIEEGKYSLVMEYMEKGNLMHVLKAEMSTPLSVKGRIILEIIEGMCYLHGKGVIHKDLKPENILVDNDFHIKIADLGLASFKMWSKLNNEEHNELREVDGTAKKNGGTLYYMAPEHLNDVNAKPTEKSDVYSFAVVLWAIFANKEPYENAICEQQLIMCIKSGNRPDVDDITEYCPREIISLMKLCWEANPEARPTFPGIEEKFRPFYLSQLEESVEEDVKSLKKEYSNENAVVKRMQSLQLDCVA

One assay deals with FADD-deficient Jurkat cells. Put plainly: Cellular necroptosis assay (human TNFα-induced necrosis, CellTiter-Glo). The class given is cell-based. To be noted: Homo sapiens, Jurkat, 48 h, TNFα 10 ng/mL, read-out: Cell IC50. Background: Cellular ATP, detected with luciferase, serves as a proxy for viable cell number.
As for `CN1C(=O)[C@@H](NC(=O)c2nn(Cc3ccccn3)cc2F)COc2cccnc21` [Example 74, (S)-4-fluoro-N-(5-methyl-4-oxo-2,3,4,5-tetrahydropyrido[3,2-b][1,4]oxazepin-3-yl)-1-(pyridin-2-ylmethyl)-1H-pyrazole-3-carboxamide], the IC50 (usually the concentration that inhibits the measured activity by half) lay within 0.1 to 1000 nM. Same read-out and setting: in the case of `CN1C(=O)[C@@H](NC(=O)c2nc3cccc(-c4ccccc4)c3s2)COc2ccccc21` [Example 84, (S)—N-(5-methyl-4-oxo-2,3,4,5-tetrahydrobenzo[b][1,4]oxazepin-3-yl)-7-phenylbenzo[d]thiazole-2-carboxamide] it was 0.1 to 1000 nM; in that of `CN1C(=O)[C@@H](NC(=O)c2cc(Cc3ccccc3)on2)[C@H]2C[C@H]2c2ccccc21` [Example 7A, 5-benzyl-N-((2S)-4-methyl-3-oxo-1,1a,2,3,4,8b-hexahydrobenzo[b]cyclopropa[d]azepin-2-yl)isoxazole-3-carboxamide], 0.1 to 1000 nM; in that of `CN1C(=O)[C@@H](NC(=O)c2nnc(Cc3ccccc3)o2)CCc2ccccc21` [Example 225, (S)-5-benzyl-N-(1-methyl-2-oxo-2,3,4,5-tetrahydro-1H-benzo[b]azepin-3-yl)-1,3,4-oxadiazole-2-carboxamide], 0.1 to 1000 nM. On the same count and under the same terms, in the case of `CN1C(=O)[C@@H](NC(=O)c2nn(Cc3ccccc3)cc2F)[C@H]2C[C@H]2c2cccnc21` [Example 82A, 1-benzyl-4-fluoro-N-((1aS,2S,8bR)-4-methyl-3-oxo-1,1a,2,3,4,8b-hexahydrocyclopropa[d]pyrido[2,3-b]azepin-2-yl)-1H-pyrazole-3-carboxamide] it was 0.1 to 1000 nM. The same measure, in the same setting: in the case of `[2H]C([2H])([2H])N1C(=O)[C@@H](NC(=O)c2nn(Cc3ccccc3)cc2F)COc2cccnc21` [Example 175, (S)-1-benzyl-4-fluoro-N-(5-trideuteriomethyl-4-oxo-2,3,4,5-tetrahydropyrido[3,2-b][1,4]oxazepin-3-yl)-1H-pyrazole-3-carboxamide] it was 0.1 to 1000 nM. As to `CN1C(=O)[C@H](NC(=O)c2nnc(Cc3ccccc3)[nH]2)C[C@H](F)c2ccccc21` (mixture of isomers) [Example 11B, 5-benzyl-N-((3S,5R)-5-fluoro-1-methyl-2-oxo-2,3,4,5-tetrahydro-1H-benzo[b]azepin-3-yl)-4H-1,2,4-triazole-3-carboxamide and 5-benzyl-N-((3R,5S)-5-fluoro-1-methyl-2-oxo-2,3,4,5-tetrahydro-1H-benzo[b]azepin-3-yl)-4H-1,2,4-triazole-3-carboxamide], the IC50 lay within 0.1 to 1000 nM. Turning to `CN1C(=O)[C@@H](NC(=O)c2nnc(Cc3ccccc3)[nH]2)C[C@H](F)c2ccccc21` (mixture of isomers) [Example 12, 5-benzyl-N-((3S,5S)-5-fluoro-1-methyl-2-oxo-2,3,4,5-tetrahydro-1H-benzo[b]azepin-3-yl)-4H-1,2,4-triazole-3-carboxamide and 5-benzyl-N-((3R,5R)-5-fluoro-1-methyl-2-oxo-2,3,4,5-tetrahydro-1H-benzo[b]azepin-3-yl)-4H-1,2,4-triazole-3-carboxamide], the IC50 lay in the range of 0.1 to 1000 nM.

Regarding `CN1C(=O)C(NC(=O)c2cc(Cc3ccccc3)on2)[C@@H]2C[C@@H]2c2ccccc21` (stereo in doubt) [Example 7B, 5-benzyl-N-((2S)-4-methyl-3-oxo-1,1a,2,3,4,8b-hexahydrobenzo[b]cyclopropa[d]azepin-2-yl)isoxazole-3-carboxamide], the IC50 is 1000 to 10000 nM. Same read-out and setting: in the case of `O=C(N[C@H]1COc2cccnc2NC1=O)c1cc(C2(c3ccccc3)CC2)on1` [Example 62, (S)—N-(4-oxo-2,3,4,5-tetrahydropyrido[3,2-b][1,4]oxazepin-3-yl)-5-(1-phenylcyclopropyl)isoxazole-3-carboxamide] it was 0.1 to 1000 nM; in that of `CN1C(=O)[C@@H](NC(=O)c2ncc(C3(c4ccccc4)CC3)s2)COc2cccnc21` [Example 63, (S)—N-(5-methyl-4-oxo-2,3,4,5-tetrahydropyrido[3,2-b][1,4]oxazepin-3-yl)-5-(1-phenylcyclopropyl)thiazole-2-carboxamide], 0.1 to 1000 nM; in that of `CN1C(=O)[C@H](NC(=O)c2nnc(Cc3ccccc3)[nH]2)C[C@@H](F)c2ccccc21` (mixture of isomers) [Example 12B, 5-benzyl-N-((3S,5S)-5-fluoro-1-methyl-2-oxo-2,3,4,5-tetrahydro-1H-benzo[b]azepin-3-yl)-4H-1,2,4-triazole-3-carboxamide and 5-benzyl-N-((3R,5R)-5-fluoro-1-methyl-2-oxo-2,3,4,5-tetrahydro-1H-benzo[b]azepin-3-yl)-4H-1,2,4-triazole-3-carboxamide], 0.1 to 1000 nM. Same read-out and setting: in the case of `CN1C(=O)[C@@H](NC(=O)c2cc(C3(c4ccccc4)CC3)[nH]n2)COc2cccnc21` [Example 73, (S)—N-(5-methyl-4-oxo-2,3,4,5-tetrahydropyrido[3,2-b][1,4]oxazepin-3-yl)-5-(1-phenylcyclopropyl)-1H-pyrazole-3-carboxamide] it was 0.1 to 1000 nM; in that of `CN1C(=O)[C@@H](NC(=O)c2ncc(C3(c4ccccc4)CC3)[nH]2)COc2ccccc21` [Example 78, (S)—N-(5-methyl-4-oxo-2,3,4,5-tetrahydrobenzo[b][1,4]oxazepin-3-yl)-5-(1-phenylcyclopropyl)-1H-imidazole-2-carboxamide], 0.1 to 1000 nM. Still for that read-out and setting: in the case of `CN1C(=O)[C@@H](NC(=O)c2nn(Cc3ccc(Cl)cn3)cc2F)COc2ccccc21` [Example 216, (S)-1-((5-chloropyridin-2-yl)methyl)-4-fluoro-N-(5-methyl-4-oxo-2,3,4,5-tetrahydrobenzo[b][1,4]oxazepin-3-yl)-1H-pyrazole-3-carboxamide] it was 0.1 to 1000 nM. Regarding `CN1C(=O)[C@@H](NC(=O)c2nn(Cc3ncccn3)cc2F)COc2ccccc21` [Example 224, (S)-4-fluoro-N-(5-methyl-4-oxo-2,3,4,5-tetrahydrobenzo[b][1,4]oxazepin-3-yl)-1-(pyrimidin-2-ylmethyl)-1H-pyrazole-3-carboxamide], the IC50 is 0.1 to 1000 nM.

Still in this assay, the particulars now being: TNFα 10 ng/mL, 48 h; read-out: Cell IC50.
Consider `CN1C(=O)[C@@H](NC(=O)c2nnc(Cc3ccccc3)[nH]2)C[C@@H](F)c2ccccc21` (mixture of isomers) [Example 11A, 5-benzyl-N-((3S,5R)-5-fluoro-1-methyl-2-oxo-2,3,4,5-tetrahydro-1H-benzo[b]azepin-3-yl)-4H-1,2,4-triazole-3-carboxamide and 5-benzyl-N-((3R,5S)-5-fluoro-1-methyl-2-oxo-2,3,4,5-tetrahydro-1H-benzo[b]azepin-3-yl)-4H-1,2,4-triazole-3-carboxamide], for which the IC50 lay within 0.1 to 1000 nM.

The next assay has as its target GST-hRIPK1 (8-327) (Homo sapiens (Human), UniProt Q13546). Put plainly: Fluorescent Polarization Binding (FP Binding) assay.
Conditions: not given
`O=C(N[C@@H]1C(=O)Nc2c(F)cc(F)cc2[C@H]2C[C@@H]12)c1nnc(Cc2ccccc2)[nH]1` [Example 176, 5-benzyl-N-((1aR,2S,8bS)-5,7-difluoro-3-oxo-1,1a,2,3,4,8b-hexahydrobenzo[b]cyclopropa[d]azepin-2-yl)-4H-1,2,4-triazole-3-carboxamide] registered an IC50 of 0.1 to 1000 nM. Still for that read-out and setting: in the case of `O=C(N[C@@H]1CC2(CC2)c2cccnc2NC1=O)c1nnc(Cc2ccccc2)[nH]1` [Example 98A, (R)-5-benzyl-N-(8′-oxo-6′,7′,8′,9′-tetrahydrospiro[cyclopropane-1,5′-pyrido[2,3-b]azepin]-7′-yl)-4H-1,2,4-triazole-3-carboxamide] it was > 3000 nM; in that of `CN1C(=O)[C@@H](NC(=O)c2ncc(S(=O)(=O)c3ccccc3)s2)COc2ccccc21` [Example 49, (S)—N-(5-methyl-4-oxo-2,3,4,5-tetrahydrobenzo[b][1,4]oxazepin-3-yl)-5-(phenylsulfonyl)thiazole-2-carboxamide], 1000 to 10000 nM.

As for `CN1C(=O)[C@H](NC(=O)c2nnc(Cc3ccccc3)o2)[C@@H]2C[C@@H]2c2nccnc21` [Example 177B, 5-benzyl-N-((7R,7aR,8aS)-5-methyl-6-oxo-5,6,7,7a,8,8a-hexahydrocyclopropa[d]pyrazino[2,3-b]azepin-7-yl)-1,3,4-oxadiazole-2-carboxamide], the IC50 is > 3000 nM. Consider `CN1C(=O)[C@@H](NC(=O)c2cc(Oc3ccc(F)cc3F)ccn2)CCc2cccnc21` [Example 121B, (S)-4-(2,4-difluorophenoxy)-N-(9-methyl-8-oxo-6,7,8,9-tetrahydro-5H-pyrido[2,3-b]azepin-7-yl)picolinamide], for which the IC50 lay within 0.1 to 1000 nM. Same read-out and setting: in the case of `CN1C(=O)[C@H](NC(=O)c2nn(Cc3ccccc3)cc2F)CCc2cccnc21` [Example 111A, (R)-1-benzyl-4-fluoro-N-(9-methyl-8-oxo-6,7,8,9-tetrahydro-5H-pyrido[2,3-b]azepin-7-yl)-1H-pyrazole-3-carboxamide] it was 1000 to 10000 nM; in that of `Cn1ncc2c1CC[C@H](NC(=O)c1nnc(Cc3ccccc3)[nH]1)C(=O)N2` [Example 118B, (S)-5-benzyl-N-(1-methyl-5-oxo-1,4,5,6,7,8-hexahydropyrazolo[4,3-b]azepin-6-yl)-4H-1,2,4-triazole-3-carboxamide], 1000 to 10000 nM; in that of `CN1C(=O)[C@@H](NC(=O)[C@@H]2C[C@H]2Cc2ccccc2)COc2ccccc21` (single isomer, unassigned) [Example 50A], 0.1 to 1000 nM. On the same count and under the same terms, in the case of `C[C@H]1Oc2cccnc2N(C)C(=O)[C@H]1NC(=O)c1ccn(Cc2ccccc2)n1` [Example 155, 1-Benzyl-N-((2R,3S)-2,5-dimethyl-4-oxo-2,3,4,5-tetrahydropyrido[3,2-b][1,4]oxazepin-3-yl)-1H-pyrazole-3-carboxamide] it was 0.1 to 1000 nM; in that of `CN1C(=O)[C@@H](NC(=O)C2CC(Cc3ccccc3)C2)COc2ccccc21` (stereo partly drawn) [Example 43, 3-benzyl-N—((S)-5-methyl-4-oxo-2,3,4,5-tetrahydrobenzo[b][1,4]oxazepin-3-yl)cyclobutane-1-carboxamide], 1000 to 10000 nM.

In the case of `CN1C(=O)[C@@H](NC(=O)c2cc3n(n2)CC[C@@H]3c2ccccc2)COc2ccccc21` [Example 13, (R)—N—((S)-5-methyl-4-oxo-2,3,4,5-tetrahydrobenzo[b][1,4]oxazepin-3-yl)-4-phenyl-5,6-dihydro-4H-pyrrolo[1,2-b]pyrazole-2-carboxamide], the IC50 was 0.1 to 1000 nM.
